Laboratory results: patent US20130324555A1, “Method of use of pharmaceutical formulations for the treatment of apicomplexan diseases in animals” (priority 2012, published 2013)
Entries after “also recorded” stand apart in the source; their conditions may differ. Where two headings read alike, the source gives them in different places.

Experiments:
[1] = test system: THdhxgTRP tachyzoites transfected with pLK47; assay: Insertional mutagenesis experiments (selection of resistant mutants); format: cell-based, T. gondii; settings: prolonged incubation (six weeks)
Protocol: Insertional mutagenesis experiments were performed.
THdhxgTRP tachyzoites were transfected with pLK47 vector plasmid. Parasites were extracted from HFF cells and resuspended in 1 mL cytomix electroporation buffer solution (120 mM KCl, 150 uM CaCl2, 5 mM K2HPO4, 5 mM KH2PO4, 25 mM HEPES, 2 mM EDTA and 5 mM MgCl2 in sterile H2O). Equivalent amounts of plasmid DNA and cytomix solution containing 10×10^7 parasites were combined for a total volume of 400 uL and electroporated using BioRad electroporator at 1.5 k, […] and 100Ω. […] Successfully transfected parasites were selected by month-long treatment with mycophenolic acid (25 ug/mL) and xanthine (50 ug/mL). After one month, the mixed mutant population were exposed to 3i, 3j, 7a or 14b to select for those mutants whose gene disruption conferred resistance to the drug.

[2] = test system: P. falciparum D6 (CDC/Sierra Leone); assay: Malaria SYBR Green 1-Based Fluorescence (MSF) Assay, strain D6; format: cell-based; settings: for IC50: Plasmodium falciparum
Protocol: Compound activity against P. falciparum, the causative agent of malaria, was assessed using the Malaria SYBR Green 1-Based Fluorescence (MSF) Assay. This microtiter plate drug sensitivity assay uses the presence of malarial DNA as a measure of parasitic proliferation. The assay is a microtiter plate drug sensitivity assay that uses the presence of malarial DNA as a measure of parasitic proliferation in the presence of antimalarial drugs or experimental compounds based on modifications of previously described methods (Plouffe et al., Proc Natl Acad Sci USA. 2008, 105, 9059-9064), (Johnson et al., Antimicrob. Agents Chemother. 2005, 49, 3463-3467).
Selected compounds were examined for activity against two strains of P. falciparum: D6 (CDC/Sierra Leone), a drug-sensitive and readily killed by chloroquine, and TM90-C235, a multi-drug resistant strain resistant to chloroquine.
D6 (CDC/Sierra Leone) and TM90-C235 (WRAIR, Thailand) laboratory strains of P. falciparum were used for each drug sensitivity assessment. The parasite strains were maintained continuously in long-term cultures as previously described in Johnson et al, and P. falciparum strains in late-ring or early-trophozoite stages were cultured in predosed 384-well microtiter drug assay plates in 38 μl culture volume per well at a starting parasitemia of 0.3% and a hematocrit of 2%. Pre-dosed, sterile, 384 well black optical bottom microtiter drug plates for use in the MSF assay were produced using a Tecan EVO Freedom Liquid Handling System (Tecan US, Durham, N.C.). Dose response plates were produced at a final concentration ranging from 0.5-10000 ng/ml in quadruplicate (twelve two-fold serial dilutions of each test compound or chloroquine control in DMSO. Each run was validated by a batch control plate with chloroquine (Sigma-Aldrich Co., Catalog #C6628) at a final concentration of 2000 ng/ml. The cultures were incubated for 72 hours at 37° C., 5% CO2, 5% O2 and 90% N2. Lysis buffer (38 μl per well), consisting of 20 mM Tris HCl, 5 mM EDTA, 1.6% Triton X, 0.016% saponin, and SYBR green I dye at a 20× concentration (Invitrogen, Catalog #S-7567) was then added to the assay plates utilizing the Tecan EVO Freedom system for a final SYBR Green concentration of 10×. Plates were incubated in the dark at room temperature in the dark for 24 hours.
Compound activity was assessed by examining for the relative fluorescence units (RFU) per well using the Tecan Genios Plus (Tecan US, Inc., Durham, N.C.). GraphPad Prism (GraphPad Software Inc., San Diego, Calif.) using the nonlinear regression (sigmoidal dose-response/variable slope) equation was used to determine IC50 values.

[3] = test system: HFF cells; assay: In vitro toxicity assay on host cells ([3H]-thymidine incorporation or WST-1); format: cell-based, Human; settings: for Toxicity: HFF cells
Protocol: Determination of the anti-apicomplexan activity of Compounds of Formula I may be determined by one skilled in the art. Parasite proliferation was monitored by using stably transfected type I RH-YFP parasites, which constitutively express Yellow Florescent Protein. Proliferation also was tested using a [^3H]-Uracil incorporation assay, as Uracil is incorporated into nucleic acids of T. gondii tachyzoites, but not mammalian cells, as they divide. Complimentary challenge assays ensured that the observed fluorescence data was due to parasite inhibition and not to quenched fluorescence. Pyrimethamine and sulfadiazine were used as positive controls, and DMSO at a concentration of 0.1% was used as the negative control. Because T. gondii is an obligate parasite, compounds that are toxic to host cells will appear to inhibit parasite growth. Therefore, all test compounds were simultaneously evaluated for efficacy and toxicity against human cells.
HFF cells were grown to 30% confluence in 96-well plates.
Inhibitory compounds and control media were added to wells in concentrations equal to those being tested in challenge assays. After 72 hours, [^3H]-Thymidine incorporation assay was conducted to assess cell growth. Alternatively, toxicity was assessed using WST-1 cell proliferation reagent (Roche). Confluent HFF cells were treated with inhibitory and control compounds. On the final day of experiment, 10 uL of WST-1 reagent was added to each well. Plates were incubated for 1 hour in the dark at 37° C., and absorbance was measured using Synergy H4 Hybrid Reader (BioTek) fluorometer at […].

[4] = Uninfected mice dosed with compound alone (groups of the oocyst study); format: in vivo; settings: for Day of Death: challenge None; for symptoms of uninfected mice dosed with compound alone: 100 or 25 mg/kg oral gavage
Protocol: Thus, compounds 14a and 14b were tested for efficacy in a mouse model of T. gondii oocyst infection. The oocyst form of the parasite is excreted by cats and is often the form by which people and other animals become infected. This oocyst infection in mice is very virulent, and fatal. Mice were infected by oral gavage with ME49 or TgGoatUS4 oocysts. Mice were treated with either a high dose (100 mg/kg) or low dose (25 mg/kg) of 14a or 14b 1 mL suspension via oral gavage, or were not treated. […] Treatment with 14a and 14b increased survival by 1 day (Table 6, FIGS. 8 and 9).
Five groups of B7 female mice weighing approximately 25 g were used. Group 1 received only 14a (100 mg/kg, 2.5 mg/mL, 1.0 mL) by oral gavage. Group 2 received only 14a (25 mg/kg, 0.5 mg/mL, 1.0 mL) by oral gavage. Group 3 received 14a (100 mg/kg, 2.5 mg/mL, 1.0 mL) and 100 ME49 oocysts by oral gavage. Group 4 received 14a (25 mg/kg, 0.5 mg/mL, 1.0 mL) and 100 ME49 oocysts by oral gavage. Group 5 received only 100 ME49 oocysts by oral gavage.
Five groups of B7 female mice weighing approximately 25 g were used. Group 1 received only 14b (100 mg/kg, 2.5 mg/mL, 1.0 mL) by oral gavage. Group 2 received only 14b (25 mg/kg, 0.5 mg/mL, 1.0 mL) by oral gavage. Group 3 received 14b (100 mg/kg, 2.5 mg/mL, 1.0 mL) and 100 TgGoatUS4 oocysts by oral gavage. Group 4 received 14a (25 mg/kg, 0.5 mg/mL, 1.0 mL) and 100 TgGoatUS4 oocysts by oral gavage. Group 5 received only 100 TgGoatUS4 oocysts by oral gavage.

[5] = D6, chloroquine-sensitive strain D6, read-out: D6 IC50
[6] = D6, chloroquine-sensitive strain D6, read-out: D6 IC50 (molar)
[7] = chloroquine-sensitive strain D6

SMILES | parasite growth of mixed mutant population in the presence of compound [1] | IC50 [2, 5] [µg/mL] | IC50 [2, 6] [nM] | D6 IC50 [2, 7] [µg/mL] | toxicity to human host cells, in words [3] | Toxicity [3] [nM] | IC50 ([2]; D6, read-out: D6 IC50) [µg/mL] | Day of Death ([4]; 25 mg/kg oral gavage) | Day of Death ([4]; 100 mg/kg oral gavage) | symptoms of uninfected mice dosed with compound alone [4] | IC50 ([2]; chloroquine-sensitive strain D6, read-out: D6 IC50) [µg/mL] | parasite growth of mixed mutant population in the presence of compound ([1]; hydrochloride)
CC(C)(C)c1cccc(NC(=O)c2cc(Cl)ccc2O)c1 [Compound 3i, N-(3-tert-butylphenyl)-5-chloro-2-hydroxybenzamide] | No parasite growth was observed; also recorded: No parasite growth was noted | 0.957 | 3000 | 0.9569 | not toxic to human host cells | >1000 | – | – | – | – | – | –
CN(CC(=O)NN)C(=O)Oc1ccc(Cl)cc1C(=O)Nc1ccc([N+](=O)[O-])cc1Cl.Cl [Compound 14a, 4-chloro-2-((2-chloro-4-nitrophenyl)carbamoyl)phenyl (2-hydrazinyl-2-oxoethyl)(methyl)carbamate hydrochloride] | – | – | – | – | not toxic to human host cells | >1000 | 1.33 | None | None | remained asymptomatic | – | –
O=C(Nc1cc(C(F)(F)F)cc(C(F)(F)F)c1)c1cc(Cl)ccc1O [Compound 3j] | No parasite growth was observed; also recorded: No parasite growth was noted | – | – | – | not toxic to human host cells | >1000 | – | – | – | – | 0.593 | –
O=C(Oc1ccc(Cl)cc1C(=O)Nc1ccc([N+](=O)[O-])cc1Cl)c1ccccc1 [Compound 7a, 4-chloro-2-((2-chloro-4-nitrophenyl)carbamoyl)phenyl benzoate] | No parasite growth was observed; also recorded: No parasite growth was noted | 0.295 | 700 | 0.2946 | not toxic to human host cells | >1000 | – | – | – | – | – | –
CN(CC(=O)NN)C(=O)Oc1ccc(Cl)cc1C(=O)Nc1ccc(C(F)(F)F)cc1C(F)(F)F.Cl [Compound 14b, 2-((2,4-bis(trifluoromethyl)phenyl)carbamoyl)-4-chlorophenyl (2-hydrazinyl-2-oxoethyl)(methyl)carbamate hydrochloride] | – | – | – | – | not toxic to human host cells | >1000 | – | None | None | remained asymptomatic | – | No parasite growth was observed; also recorded: No parasite growth was noted
